Measurements from USRE42152E1, “Aromatic-linked polyamine macrocyclic compounds with anti-HIV activity” (Genzyme Corporation, priority 1992, dated 2011).
≈ marks a conversion by molar mass, not a printed value. Where two headings read alike, the source gives them in different places.

What was measured:
Format in all cases: cell-based
HIV-2 (LAV-2 ROD) = assay: MTT anti-viral screen, MT-4 cells challenged with HIV-2; details: for IC50: Human immunodeficiency virus 2, MT4, 120 h, read-out: IC50 HIV-2 (ROD)
MT-4 cells = assay: Cytotoxicity by MTT method in MT-4 cells
HIV-1 (HTLV-IIIB) = assay: microbe, parasite or virus in culture; details: for IC50: Human immunodeficiency virus 1, IIIB, MT4, 120 h, read-out: IC50 HIV-1 (IIIB)
[1] = Cytotoxicity by MTT method in MT-4 cells
[2] = system: HIV uncoating (or fusion); assay: Sensitivity of viral RNA from freshly infected MT4 cells to RNase degradation (uncoating); details: radiolabelled viral particles, RNA harvested 4 hours after infection
Text: It was reasoned that if tincoating (fusion) was hampered, the viral capsid (or envelope) proteins would remain associated with the viral RNA genome and thus the RNA should be protected against RNase attack.

HIV-1 strain IIIb = assay: Time-of-addition experiment, MT4 cells infected with HIV-1 IIIb, p24 antigen; details: HIV-1 IIIb at high multiplicity, p24 at 29 hours after infection
Procedure: To pinpoint the stage at which the compounds interact with the HIV replicative cycle, a time-of-addition experiment was carried out on MT4 cells infected with HIV-1 strain IIIb at high virus multiplicity to ensure that the virus replicative steps would be synchronised in the whole cell populations. Test compounds wife added 1, 2, 3, . . . 22, 23, 24 hours after infection, and vital p24 antigen production determined 29 hours after infection.
Depending on the stage at which compounds interact and the need for intracellular metabolism, addition of the compounds could be delayed for n hours without loss of activity.

[3] = MT-4 cells, 100 CCID50, 5 days, MTT
[4] = MT-4 cells, 5 days, MTT, HIV-1 part of table
[5] = MT-4 cells, 5 days, MTT, HIV-2 part of table
[6] = human, MT-4 cells, 5 days, MTT; HIV-1 part of table; read-out: CC50 (HIV-1 (IIIB))
[7] = human, MT-4 cells, 5 days, MTT; HIV-2 part of table; read-out: CC50 (HIV-2 (ROD))
[8] = human; MT-4 cells, 5 days, MTT; HIV-1 part of table; read-out: CC50 (HIV-1 (IIIB))

1,1′-[1,4-Phenylene-bis-(methylene)]-bis-1,4,8,11-tetraazacyclotetradecane copper diacetate hexahydrate [Compound G]
IC50 HIV-2 (ROD) (HIV-2 (LAV-2 ROD); [3]): 0.027 µg/mL | CC50 (HIV-1 (IIIB)) (MT-4 cells; [4]): >200 µg/mL | CC50 (HIV-2 (ROD)) (MT-4 cells; [5]): >200 µg/mL | IC50 HIV-1 (IIIB) (HIV-1 (HTLV-IIIB); [3]): 0.018 µg/mL

1,1′-[1,4-Phenylene-bis-(methylene)]-bis-1,4,8,11-tetraazacyclotetradecane zinc dichloride monohydrate [Compound F]
IC50 HIV-2 (ROD) (HIV-2 (LAV-2 ROD); [3]): 0.0019 µg/mL | CC50 (HIV-1 (IIIB)) (MT-4 cells; [4]): >200 µg/mL | CC50 (HIV-2 (ROD)) (MT-4 cells; [5]): >200 µg/mL | IC50 HIV-1 (IIIB) (HIV-1 (HTLV-IIIB); [3]): 0.0026 µg/mL

c1cc(CN2CCCNCCNCCCNCC2)cc(CN2CCCNCCNCCCNCC2)c1 [A, 1,1′-[1,3-phenylenebis(methylene)]bis-1,4,8,11-tetraazacyclotetradecane]
IC50 (HIV-2 (LAV-2 ROD); [3]): < 0.01 µg/mL | CC50 at 5 days [1, 6]: > 500 µg/mL | CC50 at 5 days [1, 7]: > 500 µg/mL | IC50 (HIV-1 (HTLV-IIIB); [3]): 0.03 µg/mL (≈ 0.0597 µM)

O=[N+]([O-])c1cc(CN2CCCNCCNCCCNCC2)cc(CN2CCCNCCNCCCNCC2)c1 [Compound C, 1,1′-[5-nitro-1,3-phenylenebis-(methylene)]-bis-1,4,8,11-tetraazacyclotetradecane]
IC50 (HIV-2 (LAV-2 ROD); [3]): 0.07 µg/mL (≈ 0.128 µM) | CC50 at 5 days [1, 6]: 55 µg/mL (≈ 100 µM) | CC50 at 5 days [1, 7]: 55 µg/mL (≈ 100 µM) | IC50 (HIV-1 (HTLV-IIIB); [3]): 0.05 µg/mL (≈ 0.0913 µM)

Br.Br.Br.Br.Br.Br.Br.Br.O.O.O.O.c1cc(CN2CCCNCCNCCCNCC2)cc(-c2cccc(CN3CCCNCCNCCCNCC3)c2)c1 [Compound J, 1,1′-[3,3′-Biphenylene-bis-(methylene)]-bis-1,4,8,11-tetraazacyclotetradecane octahydrobromide tetrahydrate]
IC50 HIV-2 (ROD) (HIV-2 (LAV-2 ROD); [3]): 0.22 µg/mL | CC50 (HIV-1 (IIIB)) (MT-4 cells): >200 µg/mL | CC50 (HIV-2 (ROD)) (MT-4 cells): >200 µg/mL | IC50 HIV-1 (IIIB) (HIV-1 (HTLV-IIIB); [3]): 0.16 µg/mL

Br.Br.Br.Br.Br.Br.Br.Br.Br.Br.O.O.O.O.O.c1cc(CN2CCCNCCNCCCNCC2)cc(-c2cc(CN3CCCNCCNCCCNCC3)ccn2)n1 [Compound K, 1,1′-[4,4′-(2,2′-Bipyridine)-bis-(methyl)]-bis-1,4,8,11-tetraazacyclotetradecane decahydrobromide pentahydrate]
IC50 HIV-2 (ROD) (HIV-2 (LAV-2 ROD); [3]): 0.35 µg/mL | CC50 (HIV-1 (IIIB)) (MT-4 cells; [4]): 117 µg/mL | CC50 (HIV-2 (ROD)) (MT-4 cells; [5]): 117 µg/mL | IC50 HIV-1 (IIIB) (HIV-1 (HTLV-IIIB); [3]): 0.38 µg/mL

Br.Br.Br.Br.Br.Br.Br.Br.Br.Br.O.O.O.c1cc2ccc3ccc(CN4CCCNCCNCCCNCC4)nc3c2nc1CN1CCCNCCNCCCNCC1 [Compound L, 1,1′-[2,9-(1,10-Phenanthroline)-bis-(methylene)]-bis-1,4,8,11-tetraazacyclotetradecane decahydrobromide trihydrate]
IC50 HIV-2 (ROD) (HIV-2 (LAV-2 ROD); [3]): 0.32 µg/mL | CC50 (HIV-1 (IIIB)) (MT-4 cells): >200 µg/mL | CC50 (HIV-2 (ROD)) (MT-4 cells): >200 µg/mL | IC50 HIV-1 (IIIB) (HIV-1 (HTLV-IIIB); [3]): 0.29 µg/mL

Br.Br.Br.Br.Br.Br.Br.Br.O.O.c1cc(CN2CCCNCCNCCNCCC2)ccc1CN1CCCNCCNCCNCCC1 [Compound M, 11,11′-[1,4-Phenylene-bis-(methylene)]-bis-1,4,7,11-tetraazacyclotetradecane octahydrobromide dihydrate]
IC50 (HIV-2 (LAV-2 ROD)): 0.07 µg/mL | CC50 at 5 days [1, 8]: > 500 µg/mL | CC50 (HIV-2 (ROD)) (MT-4 cells; [5]): >500 µg/mL | IC50 (HIV-1 (HTLV-IIIB)): 0.03 µg/mL

Br.Br.Br.Br.Br.Br.Br.Br.O.O.O.O.O.O.c1cc(CN2CCCNCCNCCCNCC2)ccc1CN1CCCNCCNCCNCCC1 [Compound N, 1,11′-[1,4-Phenylene-bis-(methylene)]-1,4,8,11-tetraazacyclotetradecane-1,4,7,11-tetraazacydotetradecane octahydrobromide hexahydrate]
IC50 HIV-2 (ROD) (HIV-2 (LAV-2 ROD); [3]): 0.07 µg/mL | CC50 (HIV-1 (IIIB)) (MT-4 cells): >500 µg/mL | CC50 (HIV-2 (ROD)) (MT-4 cells): >500 µg/mL | IC50 HIV-1 (IIIB) (HIV-1 (HTLV-IIIB); [3]): 0.01 µg/mL

Br.Br.Br.Br.Br.Br.Br.Br.O.O.O.O.c1cc(CN2CCCNCCNCCCNCC2)nc(CN2CCCNCCNCCCNCC2)c1 [Compound O, 1,1′-[2,6-Pyridinebis-(methylene)]-bis-1,4,8,11-tetraazacyclotetradecane octahydrobromide tetrahydrate]
IC50 HIV-2 (ROD) (HIV-2 (LAV-2 ROD); [3]): 0.08 µg/mL | CC50 (HIV-1 (IIIB)) (MT-4 cells): >500 µg/mL | CC50 (HIV-2 (ROD)) (MT-4 cells): >500 µg/mL | IC50 HIV-1 (IIIB) (HIV-1 (HTLV-IIIB); [3]): 0.03 µg/mL

Br.Br.Br.Br.Br.Br.Br.Br.Br.O.O.c1ncc(CN2CCCNCCNCCCNCC2)cc1CN1CCCNCCNCCCNCC1 [Compound P, 1,1′[3,5-Pyridinebis-(methylene)]-bis-1,4,8,11-tetraazacyclotetradecane nonahydrobromide dihydrate]
IC50 HIV-2 (ROD) (HIV-2 (LAV-2 ROD); [3]): 0.09 µg/mL | CC50 (HIV-1 (IIIB)) (MT-4 cells): >500 µg/mL | CC50 (HIV-2 (ROD)) (MT-4 cells): >500 µg/mL | IC50 HIV-1 (IIIB) (HIV-1 (HTLV-IIIB); [3]): 0.04 µg/mL

Br.Br.Br.Br.Br.Br.c1cc(CN2CCNCCNCCNCC2)cc(CN2CCNCCNCCNCC2)c1 [Compound Q, 1,1′-[1,3-Phenylenebis-(methylene)]-bis-1,4,7,10-tetraazacyclododecane hexahydrobromide]
IC50 (HIV-2 (LAV-2 ROD)): 0.5 µg/mL | CC50 at 5 days [1, 8]: 19 µg/mL | IC50 (HIV-1 (HTLV-IIIB)): 0.07 µg/mL

CC(C)=CCN1Cc2cc(Cl)cc3[nH]c(=S)n(c23)C[C@@H]1C [Compound R82913]
resistance of viral RNA to degradation by RNase [2]: did not show this increased resistance | n, hours addition could be delayed after infection without loss of activity (HIV-1 strain IIIb): 6 h

Br.Br.Br.Br.Br.Br.c1cc(CN2CCNCCNCCNCC2)ccc1CN1CCNCCNCCNCC1 [Compound R, 1,1′-[1,4-Phenylenebis-(methylene)]-bis-1,4,7,10-tetraazacyclododecane hexahydrobromide]
IC50 (HIV-2 (LAV-2 ROD)): 2.2 µg/mL | CC50 at 5 days [1, 8]: 51 µg/mL | IC50 (HIV-1 (HTLV-IIIB)): 0.3 µg/mL

Br.Br.Br.Br.Br.Br.Br.Br.c1cc(CN2CCCNCCNCCCNCC2)sc1CN1CCCNCCNCCCNCC1 [Compound T, 1,1′-[2,5-Thophenebis-(methylene)]-bis-1,4,8,11-tetraazacyclotetradecane octahydrobromide]
IC50 HIV-2 (ROD) (HIV-2 (LAV-2 ROD); [3]): 0.02 µg/mL | CC50 (HIV-1 (IIIB)) (MT-4 cells): >500 µg/mL | CC50 (HIV-2 (ROD)) (MT-4 cells): >500 µg/mL | IC50 HIV-1 (IIIB) (HIV-1 (HTLV-IIIB); [3]): 0.01 µg/mL

O=c1[nH]cnc2c1ncn2[C@H]1CC[C@@H](CO)O1 [DDI]
resistance of viral RNA to degradation by RNase [2]: did not show this increased resistance

c1ccc2c(CN3CCCNCCNCCCNCC3)ccc(CN3CCCNCCNCCCNCC3)c2c1 [E, 1,1′-[1,4-naphthylenebis(methylene)]bis-1,4,8,11-tetraazacyclotetradecane]
IC50 HIV-2 (ROD) (HIV-2 (LAV-2 ROD); [3]): 0.05 µg/mL (≈ 0.0904 µM) | CC50 (HIV-1 (IIIB)) (MT-4 cells): 71 µg/mL (≈ 128 µM) | CC50 (HIV-2 (ROD)) (MT-4 cells): 71 µg/mL (≈ 128 µM) | IC50 HIV-1 (IIIB) (HIV-1 (HTLV-IIIB); [3]): 0.07 µg/mL (≈ 0.127 µM)

CC(C)(C)NC(=O)[C@@H]1C[C@@H]2CCCC[C@@H]2CN1C[C@@H](O)[C@H](Cc1ccccc1)NC(=O)[C@H](CC(N)=O)NC(=O)c1ccc2ccccc2n1 [Ro31-8959]
resistance of viral RNA to degradation by RNase [2]: did not show this increased resistance | n, hours addition could be delayed after infection without loss of activity (HIV-1 strain IIIb): 12 h

Cc1cc(CN2CCCNCCNCCCNCC2)c(C)cc1CN1CCCNCCNCCCNCC1 [W, 1,1′-[2,5-dimethyl-1,4-phenylenebis-(methylene)]-bis-1,4,8,11-tetraazacyclotetradecane]
IC50 (HIV-2 (LAV-2 ROD); [3]): 0.0013 µg/mL (≈ 0.00245 µM) | CC50 at 5 days [1, 6]: > 250 µg/mL | CC50 at 5 days [1, 7]: > 250 µg/mL | IC50 (HIV-1 (HTLV-IIIB); [3]): 0.0076 µg/mL (≈ 0.0143 µM)

Clc1cc(CN2CCCNCCNCCCNCC2)c(Cl)cc1CN1CCCNCCNCCCNCC1 [X, 1,1′-[2,5-dichloro-1,4-phenylenebis-(methylene)]-bis-1,4,8,11-tetraazacyclotetradecane]
IC50 (HIV-2 (LAV-2 ROD); [3]): 0.003 µg/mL (≈ 0.00525 µM) | CC50 at 5 days [1, 6]: 71.9 µg/mL (≈ 126 µM) | CC50 at 5 days [1, 7]: 72.7 µg/mL (≈ 127 µM) | IC50 (HIV-1 (HTLV-IIIB); [3]): 0.0131 µg/mL (≈ 0.0229 µM)

Brc1cc(CN2CCCNCCNCCCNCC2)ccc1CN1CCCNCCNCCCNCC1 [Y, 1,1′-[2-bromo-1,4-phenylenebis-(methylene)]-bis-1,4,8,11-tetraazacyclotetradecane]
IC50 (HIV-2 (LAV-2 ROD); [3]): 0.0043 µg/mL (≈ 0.00739 µM) | CC50 at 5 days [1, 6]: > 250 µg/mL | CC50 at 5 days [1, 7]: > 250 µg/mL | IC50 (HIV-1 (HTLV-IIIB); [3]): 0.0075 µg/mL (≈ 0.0129 µM)

c1ccc(-c2cc(CN3CCCNCCNCCCNCC3)cc(CN3CCCNCCNCCCNCC3)n2)cc1 [Z, 1,1′-[6-phenyl-2,4-pyridinebis-(methylene)]-bis-1,4,8,11-tetraazacyclotetradecane]
IC50 HIV-2 (ROD) (HIV-2 (LAV-2 ROD); [3]): 0.0246 µg/mL (≈ 0.0424 µM) | CC50 (HIV-1 (IIIB)) (MT-4 cells): >250 µg/mL | CC50 (HIV-2 (ROD)) (MT-4 cells): >250 µg/mL | IC50 HIV-1 (IIIB) (HIV-1 (HTLV-IIIB); [3]): 0.0489 µg/mL (≈ 0.0843 µM)
